According to US5034419A, “N-cycloalkylalkylamines, process for their preparation, their use as medicament and their synthesis intermediates” (L'Oreal, priority 1988, dated 1991):
Like-named read-outs stand apart in the source and are kept apart here.

Columns and labels:
sigma receptors = biological target: T1, sigma receptors (Cavia porcellus, UniProt Q60492); experiment: in vitro affinity for sigma receptors, competition with (+)[3H]SKF10,047; type: binding, guinea-pig (cerebral membranes)
T1 construct: sigma receptors of the cerebral membranes of the guinea-pig used in this study; from tissue; host or cells: guinea-pig cerebral membranes
Protocol: The test is carried out by incubating solutions of suitable concentrations of the products with standard samples of membranes and determining, after filtration, the residual radioactivity of the solution.

[1] = alkaline duodenal secretion in anaesthetized rats; type: in vivo, male rats; settings: 1 mg/kg intravenously; for Increase AUC 1 2 h: AUC of alkaline flow rate 1 h to 2 h compared with control animals; for Increase in secretion: maximum increase, anaesthetized rats
Protocol: The activity of the products on alkaline duodenal secretion in rats is studied in accordance with a technique described by FLEMSTROM and coll. Gastroenterology, 1983, 84, p. 787-794.
The test comprises determination every 10 minutes, for 3 hours and in situ, of the alkaline secretion of a duodenal segment 12 mm in length, with no Brunner glands and situated 2 cm from the pylorus.
The study is performed on male rats of about 350 g previously anaesthetized, in which the duodenal segment chosen in cannulated by 2 glass tubes in accordance with the technique described by the author, and in which a luminal perfusate consisting of 5 ml isotonic NaCl solution is maintained at 37° C.
The variations in the intraluminal alkaline secretion are measured by pHmetry every 10 minutes by means of an automated system maintaining a constant pH of 7.4 by in situ addition of a 0.04N solution of hydrochloric acid. Fifty minutes after the start of the experiment, the products under investigation are administered intravenously or intraarterially in an amount of 1 mg/kg and the volume of hydrochloric acid introduced, which is a reflection of the in situ increase in alkaline secretion, is measured every 10 minutes for 3 hours with respect to the start of the experiment, that is to say for 130 minutes after injection of the product under investigation.
The following are determined for each product:
a) The maximum increase in secretion in micro-eq/cm/h under the action of the drug, taking into account the basal secretion of the same animals observed for 50 minutes before administration of the product.
The results are shown in table 6, which follows, for the products (I) according to the invention administered intravenously in an amount of 1 mg/kg.

[2] = protection from convulsions induced by picrotoxin in mice; type: in vivo, "Swiss" male mice; settings: 50 mg/kg i.p.; picrotoxin 24 mg/kg i.p. 30 minutes later; * p<0.05, ** p<0.01, *** p<0.001
Protocol: b) The psychotropic properties of the compounds were determined by the protection from convulsions induced by picrotoxin in mice, which was realized in accordance with a method derived from that of Krall and coll., "Epilepsia", 1978, 19, p. 409-428.
The administration of picrotoxin to animals causes a convulsive attack characterized by a myoclonic extension syndrome followed by extension of the limbs leading to death of the animals. Certain substances, in particular those which act on the GABA/benzodiazepine/Cl-ionophor complex, provide protection of the animals from these convulsive attacks.
In practice, the study is carried out on groups of 10 "Swiss" male mice weighing about 20 g, to which the product under investigation is administered in aqueous solution either intraperitoneally (i.p.) or orally (p.o.).
An intraperitoneal injection of a solution of picrotoxin in an amount of 24 mg/kg in a volume of 0.2 ml per animal is then performed, either 30 minutes after intraperitoneal administration of the product or 60 minutes after oral administration of the product, the dose of the product injected in this way causing a clonic attack which leads to death of the untreated animals. Under the conditions of the test, suppression of the tonic extension phase is found in the animals treated.
The results are expressed:
either as the percentage of animals protected from this phase under the action of 50 mg/kg compound under investigation administered i.p. or 100 mg/kg p.o.,
or in the ED50 for each of these groups, which is the effective dose of the compound under investigation expressed in mg/kg which protects 50% of animals from this extension phase, the significance value of the results generally being indicated in the following manner: […]

PCP receptors = experiment: in vitro affinity for phencyclidine (PCP) receptors; type: binding; settings: Table 3; read-out: PCP rec. IC50
Protocol: (§1) The "in vitro" study of the affinity of the compounds according to the invention for the three opium receptors is carried out in accordance with the technique described by F. Roman and coll. in J. Pharm. Pharmacol. 1987, 39, p. 404-407 and the study of the affinity for PCP receptors is carried out in accordance with the technique described by Vignon J. and coll. in "Brain Res." 1983; 280, p. 194-7 and 1986; 378, p. 133-41.
(§2) The results shown in table 3 are, for each receptor studied, expressed in IC50, which are the nanomolar concentrations of the dissolved products which are capable of inhibiting 50% of the bonds between the specific radioactive ligand to the receptor under consideration.

[3] = inhibition of gastro-duodenal ulcers caused by cysteamine; type: in vivo, Wistar female rats; settings: Rattus norvegicus; cysteamine hydrochloride 400 mg/kg s.c.; products orally or subcutaneously; read-out: ED50 - ulceration scores
Protocol: This activity is set in relation to the capacity of the products to cause an increase in the alkaline secretion in the duodenum in anaesthetized animals.
In this test, groups of 6 Wistar female rats with an average weight of 200 g receive a subcutaneous injection of cysteamine hydrochloride in an amount of 400 mg/kg. The products under investigation are administered orally or subcutaneously 1 h or, respectively, 30 minutes before the ulcerogenic agent.
Ten hours thereafter, the rats are sacrificed by elongation and their stomach and duodenum are removed, rinsed with physiological solution and mounted on a card. The presence of ulcers in the antro-pyloric-duodenal zone is examined and their area, expressed in mm^2, is evaluated by multiplying the two main perpendicular axis of the lesion. Statistical analysis of the results is performed with the aid of the Student test for the ulcerated areas in comparison with a control group receiving only excipient.
The results presented in table 5 are expressed in ED50 of ulceration scores, which are the effective doses, expressed in mg/kg product, which cause inhibition of 50% of the ulcerations caused by cysteamine.

mu receptors = experiment: in vitro affinity for mu receptors; type: binding; settings: for IC50: Table 3, read-out: mu rec. IC50
Protocol: as §1, §2

delta receptors = biological target: T2, delta receptors (Cavia porcellus, UniProt A0A286XTF2); experiment: in vitro affinity for delta receptors; type: binding; settings: Table 3; read-out: delta rec. IC50
T2 construct: from tissue
Protocol: as §1, §2

kappa receptors = biological target: T3, kappa receptors (Cavia porcellus, UniProt P41144); experiment: in vitro affinity for kappa receptors; type: binding
T3 construct: from tissue
Protocol: as §1, §2

[4] = antagonism of amnesia caused by scopolamine, passive avoidance test; type: in vivo, mice; settings: for % antagonism of the amnesia: 0.25 mg/kg orally, scopolamine 1 mg/kg i.p. 30 minutes later, latency after 24 hours; for antagonism of amnesia caused by scopolamine (in words): mouse, in vivo
Protocol: The animal is introduced into the illuminated compartment, and when it moves to the dark compartment it receives an electric current (0.35 mA) through the base until it returns to the illuminated compartment, from where it is then removed.
After 24 hours, the operation is repeated. The mouse is replaced in the apparatus and it avoids entering into the dark compartment. The time which elapses before passage into this compartment is recorded; under the conditions of the experiment, the efficacy of the compounds under investigation in antagonizing the amnesic effect of scopolamine, which is administered intraperitoneally in an amount of 1 mg/kg 30 minutes before the animal is first introduced into the apparatus, can be evaluated.
In control mice which have received only scopolamine, the time elapsed before passage after 24 hours is remarkably lower than that observed in the untreated animals.
The study of the products according to the invention by this method is performed on groups of 18 mice and the products are administered orally on the first day in an amount of 0.25 mg/kg 30 minutes before administration of scopolamine i.p.

animals = settings: in vivo; cited from earlier work
[5] = Table 3, read-out: kappa rec. IC50
[6] = Table 2, (+)[3H]SKF10,047, guinea-pig cerebral membranes, read-out: IC50 (bonding affinity to sigma receptors)

T2 sequence (A0A286XTF2 1-366): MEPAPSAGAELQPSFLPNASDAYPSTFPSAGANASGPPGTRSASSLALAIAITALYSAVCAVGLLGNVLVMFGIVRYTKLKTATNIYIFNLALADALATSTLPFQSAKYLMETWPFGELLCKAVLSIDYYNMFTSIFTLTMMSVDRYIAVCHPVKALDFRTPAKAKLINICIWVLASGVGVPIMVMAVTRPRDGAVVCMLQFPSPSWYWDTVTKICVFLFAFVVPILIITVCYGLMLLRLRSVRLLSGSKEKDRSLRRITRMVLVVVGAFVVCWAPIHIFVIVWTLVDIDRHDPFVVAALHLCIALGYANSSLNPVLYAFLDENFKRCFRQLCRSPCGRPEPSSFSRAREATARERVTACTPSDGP
T1 sequence (Q60492 whole entry): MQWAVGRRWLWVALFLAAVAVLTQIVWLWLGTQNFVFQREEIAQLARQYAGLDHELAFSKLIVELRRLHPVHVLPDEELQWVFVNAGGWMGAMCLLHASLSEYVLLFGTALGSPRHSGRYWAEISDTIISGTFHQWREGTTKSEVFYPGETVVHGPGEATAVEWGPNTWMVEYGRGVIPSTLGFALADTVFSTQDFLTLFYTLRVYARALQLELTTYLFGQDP
T3 sequence (P41144 whole entry): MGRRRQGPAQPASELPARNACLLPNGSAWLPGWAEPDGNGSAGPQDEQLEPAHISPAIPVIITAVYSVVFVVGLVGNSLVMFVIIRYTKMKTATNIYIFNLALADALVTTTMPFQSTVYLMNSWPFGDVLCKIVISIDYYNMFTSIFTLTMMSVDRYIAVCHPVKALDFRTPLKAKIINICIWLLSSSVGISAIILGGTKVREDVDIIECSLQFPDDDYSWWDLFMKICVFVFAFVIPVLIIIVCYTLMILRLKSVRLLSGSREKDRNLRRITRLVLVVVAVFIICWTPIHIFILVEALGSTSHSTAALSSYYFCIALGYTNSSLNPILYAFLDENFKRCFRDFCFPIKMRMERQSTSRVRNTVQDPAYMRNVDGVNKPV

| Compound | IC50 (sigma receptors; IC50 (bonding affinity to sigma receptors), Table 2, (+)[3H]SKF10,047, guinea-pig cerebral membranes) | IC50 (sigma receptors; sigma rec. IC50, Table 3) | Increase AUC 1 2 h [1] | Increase in secretion [1] | i.p.: % prot. (inhibition of convulsions induced by picrotoxin) [2] | IC50 (PCP receptors) | ED50 [3] | IC50 (mu receptors) | IC50 (delta receptors) | IC50 (kappa receptors; [5]) | % antagonism of the amnesia [4] | antagonism of amnesia caused by scopolamine (in words) [4] | IC50 (sigma receptors; [6]) | toxicity on animals (in words) (animals) | IC50 (kappa receptors; kappa rec. IC50, Table 3) | mu rec. relative value of the IC50 (mu receptors; relative to IC50 of sigma affinity = 1) |
| --- | --- | --- | --- | --- | --- | --- | --- | --- | --- | --- | --- | --- | --- | --- | --- | --- |
| CCC(CC=Cc1ccccc1)(c1ccccc1)N(C)CC1CC1 (stereo not drawn) [Example 9, α-Cinnamyl-N-cyclopropylmethyl-α-ethyl-N-methyl-benzylamine] | 0.024 µM | 0.024 µM | 97.6 | 10.0 micro-eq/cm/h | 90% | 3.67 µM | 26.2 mg/kg | 15.8 µM | 83.8 µM | 6.2 µM | 76% | conclusive of an activity of the products according to the invention at a low dose |  |  |  |  |
| CCC(CC=Cc1ccccc1)(c1cccs1)N(C)CC1CC1 (stereo not drawn) [Example 21, α-Cinnamyl-N-cyclopropylmethyl-α-ethyl-N-methyl-2-thiophenemethylamine] |  |  |  |  | 50% | 6.28 µM | 48.2 mg/kg | 1.54 µM | 7.39 µM | 1.2 µM |  |  | 0.095 µM |  |  |  |
| CCC(CC=Cc1ccccc1)(c1ccccc1)N(C)CC1CCC1 (stereo not drawn) [Example 12, α-Cinnamyl-N-cyclobutylmethyl-α-ethyl-N-methyl-benzylamine] |  |  | 41.6 | 7.0 micro-eq/cm/h |  |  | 12.2 mg/kg | 7.18 µM | 85.6 µM | 6.28 µM | 98% | conclusive of an activity of the products according to the invention at a low dose | 0.05 µM |  |  |  |
| Cc1ccccc1NC(=N)Nc1ccccc1C [DTG, ditolylguanidine, reference compound] |  |  |  |  |  |  |  |  | 33.2 µM |  |  |  |  | excessive toxicity | 6.49 µM |  |
| CCC(CC=Cc1ccccc1)(c1ccccc1)N(C)CC1CCCCC1 (stereo not drawn) [Example 7, α-Cinnamyl-N-cyclohexylmethyl-α-ethyl-N-methyl-benzylamine] |  |  | 52.8 | 6.0 micro-eq/cm/h |  | 50.8 µM | 10.5 mg/kg | > 100 µM | 51.8 µM | 72.8 µM | 56% |  | 0.032 µM |  |  | > 1000 |
